Literature values as cited in US20240148693A1, “COMPOSITION, PREPARATION METHOD THEREFOR, AND USE THEREOF” (CHANGSHA JINGYI PHARMACEUTICAL TECHNOLOGY CO., LTD, priority 2021, published 2024).

Test system: synaptic vesicle glycoprotein 2A (SV2A)
Details: preclinical animal experiments

Structure (SMILES): CCC[C@@H]1CC(=O)N([C@@H](CC)C(N)=O)C1 [Brivaracetam]
- Affinity for SV2A relative to levetiracetam: 15-30 times
